A word on the Ki: it is a measure of affinity in units of concentration, obtained from inhibition or displacement. High values mean weaker binding, low ones tighter binding.

The values that follow come from ChEMBL document CHEMBL1148822, “Principal component analysis differentiates the receptor binding profiles of three antipsychotic drug candidates from current antipsychotic drugs” (J Med Chem, 2007).

Each structure is given as a SMILES string. The source made the active and inactive calls. The calls are words filed in the database; no cut-off is given here.

The target in test [1] is T1, Adrenergic receptor alpha-1 (Rattus norvegicus, UniProt P15823+P23944+P43140).
T1 sequence (P15823 whole entry): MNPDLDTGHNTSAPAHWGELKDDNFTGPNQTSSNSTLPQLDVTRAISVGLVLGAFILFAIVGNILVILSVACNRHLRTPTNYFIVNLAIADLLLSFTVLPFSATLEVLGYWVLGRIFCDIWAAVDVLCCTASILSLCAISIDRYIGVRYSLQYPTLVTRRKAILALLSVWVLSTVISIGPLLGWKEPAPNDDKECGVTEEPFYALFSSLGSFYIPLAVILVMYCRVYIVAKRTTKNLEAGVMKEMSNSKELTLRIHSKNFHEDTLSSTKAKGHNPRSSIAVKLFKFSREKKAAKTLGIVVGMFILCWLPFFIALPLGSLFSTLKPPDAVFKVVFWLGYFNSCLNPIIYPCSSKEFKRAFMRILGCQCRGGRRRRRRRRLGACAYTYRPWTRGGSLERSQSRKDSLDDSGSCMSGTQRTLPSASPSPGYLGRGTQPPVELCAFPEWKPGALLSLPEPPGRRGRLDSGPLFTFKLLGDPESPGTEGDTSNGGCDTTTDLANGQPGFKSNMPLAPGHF
T1 sequence (P23944 whole entry): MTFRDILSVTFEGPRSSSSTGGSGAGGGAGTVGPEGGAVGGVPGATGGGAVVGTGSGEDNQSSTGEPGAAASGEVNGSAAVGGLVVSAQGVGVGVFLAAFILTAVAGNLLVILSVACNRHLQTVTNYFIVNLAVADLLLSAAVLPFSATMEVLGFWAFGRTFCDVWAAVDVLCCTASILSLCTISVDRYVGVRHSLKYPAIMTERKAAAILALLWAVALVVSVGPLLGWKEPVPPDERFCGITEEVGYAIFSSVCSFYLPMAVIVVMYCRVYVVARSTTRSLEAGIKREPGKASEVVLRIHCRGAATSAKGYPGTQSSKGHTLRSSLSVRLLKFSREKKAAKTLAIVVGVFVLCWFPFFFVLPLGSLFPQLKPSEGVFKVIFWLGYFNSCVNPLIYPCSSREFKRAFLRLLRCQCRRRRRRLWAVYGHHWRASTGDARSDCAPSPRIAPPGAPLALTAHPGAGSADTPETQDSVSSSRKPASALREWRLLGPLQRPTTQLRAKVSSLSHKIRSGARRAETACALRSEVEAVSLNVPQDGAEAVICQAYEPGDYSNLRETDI
T1 sequence (P43140 whole entry): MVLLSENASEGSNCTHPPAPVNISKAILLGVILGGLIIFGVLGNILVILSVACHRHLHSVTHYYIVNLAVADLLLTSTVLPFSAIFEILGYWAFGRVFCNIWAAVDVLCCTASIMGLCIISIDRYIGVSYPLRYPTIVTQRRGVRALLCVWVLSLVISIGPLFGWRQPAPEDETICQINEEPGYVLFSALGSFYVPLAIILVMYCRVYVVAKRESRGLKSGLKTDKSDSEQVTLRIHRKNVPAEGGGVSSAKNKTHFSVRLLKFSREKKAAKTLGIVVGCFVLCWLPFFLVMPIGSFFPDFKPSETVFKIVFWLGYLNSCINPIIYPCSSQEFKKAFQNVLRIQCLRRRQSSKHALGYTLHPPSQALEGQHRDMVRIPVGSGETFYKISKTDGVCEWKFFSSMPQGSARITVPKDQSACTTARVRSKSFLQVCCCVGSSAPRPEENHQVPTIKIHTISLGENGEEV
Description: Displacement of [3H]prazosin from adrenergic alpha1 receptor in rat cerebral cortex

For test [2], the target named is 5-hydroxytryptamine receptor 2B (Homo sapiens, UniProt P41595). As to the kind of experiment: biochemical.
5-hydroxytryptamine receptor 2B, sequence (P41595 whole entry): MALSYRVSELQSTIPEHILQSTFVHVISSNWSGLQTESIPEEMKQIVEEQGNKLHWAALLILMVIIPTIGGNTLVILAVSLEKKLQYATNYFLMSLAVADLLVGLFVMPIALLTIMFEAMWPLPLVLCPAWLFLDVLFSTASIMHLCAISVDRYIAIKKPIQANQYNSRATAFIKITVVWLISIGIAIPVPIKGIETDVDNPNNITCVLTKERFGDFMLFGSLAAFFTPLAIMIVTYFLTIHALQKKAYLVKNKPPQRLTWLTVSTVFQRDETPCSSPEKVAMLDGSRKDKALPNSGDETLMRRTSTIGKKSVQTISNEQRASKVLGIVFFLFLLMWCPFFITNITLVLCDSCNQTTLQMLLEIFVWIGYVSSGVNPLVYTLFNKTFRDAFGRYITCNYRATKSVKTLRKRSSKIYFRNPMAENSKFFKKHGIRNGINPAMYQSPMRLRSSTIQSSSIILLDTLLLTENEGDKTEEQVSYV
Description: Displacement of [3H]LSD from 5HT2B receptor expressed in CHO cells
Test [3] deals with 5-hydroxytryptamine receptor 7 (Homo sapiens, UniProt P34969). As to the kind of experiment: biochemical.
5-hydroxytryptamine receptor 7, sequence (P34969 whole entry): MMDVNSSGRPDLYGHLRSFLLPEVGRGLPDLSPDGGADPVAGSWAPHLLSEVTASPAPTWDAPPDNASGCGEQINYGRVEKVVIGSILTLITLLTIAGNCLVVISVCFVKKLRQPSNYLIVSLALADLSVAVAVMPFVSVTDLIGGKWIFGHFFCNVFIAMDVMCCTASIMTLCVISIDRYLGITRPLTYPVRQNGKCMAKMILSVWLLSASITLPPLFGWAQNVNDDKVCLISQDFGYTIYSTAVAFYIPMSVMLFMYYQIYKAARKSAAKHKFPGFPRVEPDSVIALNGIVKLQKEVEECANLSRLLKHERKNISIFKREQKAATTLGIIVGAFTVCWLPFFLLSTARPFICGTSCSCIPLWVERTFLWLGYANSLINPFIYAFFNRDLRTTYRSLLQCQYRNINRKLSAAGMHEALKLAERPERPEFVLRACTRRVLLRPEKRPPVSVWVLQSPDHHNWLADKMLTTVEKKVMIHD
Description: Displacement of [3H]LSD from human 5HT7 receptor expressed in CHO cells
Test [4] deals with T2, 5-hydroxytryptamine receptor 6 (Homo sapiens, UniProt P50406). The settings on record: HEK293.
T2 sequence (P50406 whole entry): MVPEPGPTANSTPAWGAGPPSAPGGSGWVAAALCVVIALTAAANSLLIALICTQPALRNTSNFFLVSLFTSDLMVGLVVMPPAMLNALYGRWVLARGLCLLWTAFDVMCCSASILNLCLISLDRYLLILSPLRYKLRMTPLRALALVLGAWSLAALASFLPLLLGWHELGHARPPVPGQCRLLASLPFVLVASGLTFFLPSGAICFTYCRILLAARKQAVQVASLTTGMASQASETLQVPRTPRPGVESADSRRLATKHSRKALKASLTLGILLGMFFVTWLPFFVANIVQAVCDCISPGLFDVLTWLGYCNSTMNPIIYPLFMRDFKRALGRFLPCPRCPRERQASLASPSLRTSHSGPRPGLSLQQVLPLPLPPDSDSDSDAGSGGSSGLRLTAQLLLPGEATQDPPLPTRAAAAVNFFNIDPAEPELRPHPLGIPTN
Description: (§1) Displacement of [3H]LSD from human 5HT6 receptor expressed in HEK293 cells
For the next test, the target named is D(3) dopamine receptor (Homo sapiens, UniProt P35462). The test can be described thus: biochemical.
D(3) dopamine receptor, sequence (P35462 whole entry): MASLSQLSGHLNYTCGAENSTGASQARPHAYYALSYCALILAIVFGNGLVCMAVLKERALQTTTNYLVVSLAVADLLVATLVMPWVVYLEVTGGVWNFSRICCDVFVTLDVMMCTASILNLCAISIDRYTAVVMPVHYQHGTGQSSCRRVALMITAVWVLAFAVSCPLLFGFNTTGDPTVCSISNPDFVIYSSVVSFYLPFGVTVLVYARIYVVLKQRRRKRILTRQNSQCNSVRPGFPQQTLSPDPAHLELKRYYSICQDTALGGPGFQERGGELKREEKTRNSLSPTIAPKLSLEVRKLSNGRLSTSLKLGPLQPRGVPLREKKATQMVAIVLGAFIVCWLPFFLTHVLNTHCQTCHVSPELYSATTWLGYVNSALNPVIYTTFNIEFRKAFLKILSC
Test [5] deals with 5-hydroxytryptamine receptor 2A (Homo sapiens, UniProt P28223). As to the kind of experiment: biochemical. The format is cell-based, CHO.
5-hydroxytryptamine receptor 2A, sequence (P28223 whole entry): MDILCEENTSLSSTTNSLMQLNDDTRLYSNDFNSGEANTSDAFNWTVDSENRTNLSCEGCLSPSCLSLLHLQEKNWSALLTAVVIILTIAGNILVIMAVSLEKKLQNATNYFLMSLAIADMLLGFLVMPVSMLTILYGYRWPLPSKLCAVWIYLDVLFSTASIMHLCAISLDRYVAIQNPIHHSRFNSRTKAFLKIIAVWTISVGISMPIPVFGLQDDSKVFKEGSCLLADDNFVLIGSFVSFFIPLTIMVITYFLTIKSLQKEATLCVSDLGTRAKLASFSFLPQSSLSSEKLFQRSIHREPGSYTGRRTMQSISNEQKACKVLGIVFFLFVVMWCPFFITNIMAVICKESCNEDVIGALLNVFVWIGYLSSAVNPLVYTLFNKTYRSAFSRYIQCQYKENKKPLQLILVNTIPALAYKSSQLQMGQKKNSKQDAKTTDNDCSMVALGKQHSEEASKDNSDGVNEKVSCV
Description: Displacement of [3H]ketanserin from human 5HT2A receptor expressed in CHO cells
The target of a further test is T3, D(4) dopamine receptor (Homo sapiens, UniProt P21917).
T3 sequence (P21917 whole entry): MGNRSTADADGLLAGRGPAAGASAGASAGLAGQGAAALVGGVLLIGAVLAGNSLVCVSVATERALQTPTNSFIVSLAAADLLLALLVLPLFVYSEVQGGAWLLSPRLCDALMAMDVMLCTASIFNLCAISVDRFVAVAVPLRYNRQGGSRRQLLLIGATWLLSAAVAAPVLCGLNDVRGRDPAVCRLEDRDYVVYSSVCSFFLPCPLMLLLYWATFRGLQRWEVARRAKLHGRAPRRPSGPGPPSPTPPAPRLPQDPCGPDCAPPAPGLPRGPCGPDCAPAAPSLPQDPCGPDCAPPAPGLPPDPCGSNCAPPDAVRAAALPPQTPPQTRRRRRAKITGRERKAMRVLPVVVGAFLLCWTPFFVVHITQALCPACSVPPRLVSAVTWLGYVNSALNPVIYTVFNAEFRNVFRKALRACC
The test can be described thus: biochemical.

The target in test [6] is Sodium-dependent serotonin transporter (Homo sapiens, UniProt P31645). As to the kind of experiment: biochemical. It counts as cell-based, HEK293.
Sodium-dependent serotonin transporter, sequence (P31645 whole entry): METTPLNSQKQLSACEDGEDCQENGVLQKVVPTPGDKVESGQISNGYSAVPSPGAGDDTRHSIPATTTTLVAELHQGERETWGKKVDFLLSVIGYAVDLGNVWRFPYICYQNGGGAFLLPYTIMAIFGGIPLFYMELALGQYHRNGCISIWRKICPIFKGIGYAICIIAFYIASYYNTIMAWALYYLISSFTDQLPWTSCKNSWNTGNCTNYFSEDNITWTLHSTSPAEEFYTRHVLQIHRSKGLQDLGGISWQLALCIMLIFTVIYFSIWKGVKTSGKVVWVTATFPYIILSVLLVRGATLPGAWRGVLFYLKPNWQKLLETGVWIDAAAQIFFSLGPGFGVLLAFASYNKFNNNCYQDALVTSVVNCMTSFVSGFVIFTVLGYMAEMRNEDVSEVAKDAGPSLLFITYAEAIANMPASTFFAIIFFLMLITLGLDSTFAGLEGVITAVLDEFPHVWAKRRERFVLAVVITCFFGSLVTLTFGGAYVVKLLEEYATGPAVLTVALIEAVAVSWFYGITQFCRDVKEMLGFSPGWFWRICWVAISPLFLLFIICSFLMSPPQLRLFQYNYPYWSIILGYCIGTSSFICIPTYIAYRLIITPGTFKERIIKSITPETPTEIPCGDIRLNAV
Description: Displacement of [3H]paraxetine from human 5HT transporter expressed in HEK293 cells
In another test the target is Histamine H1 receptor (Cavia porcellus, UniProt P31389). The test can be described thus: biochemical.
Histamine H1 receptor, sequence (P31389 whole entry): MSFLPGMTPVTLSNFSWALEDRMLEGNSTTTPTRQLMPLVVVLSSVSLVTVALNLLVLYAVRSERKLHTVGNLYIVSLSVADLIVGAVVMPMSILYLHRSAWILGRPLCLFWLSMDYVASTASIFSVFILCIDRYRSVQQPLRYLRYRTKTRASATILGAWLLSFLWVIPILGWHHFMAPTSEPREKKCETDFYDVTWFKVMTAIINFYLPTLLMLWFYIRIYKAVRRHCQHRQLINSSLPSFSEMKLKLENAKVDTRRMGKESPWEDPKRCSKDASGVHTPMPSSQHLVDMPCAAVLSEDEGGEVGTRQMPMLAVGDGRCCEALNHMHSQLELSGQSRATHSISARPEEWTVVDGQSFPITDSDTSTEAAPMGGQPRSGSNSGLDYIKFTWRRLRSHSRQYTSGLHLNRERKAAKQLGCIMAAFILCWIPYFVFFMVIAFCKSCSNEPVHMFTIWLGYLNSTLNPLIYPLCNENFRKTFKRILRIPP
Test [7] concerns the target T4, 5-hydroxytryptamine receptor 1A (Homo sapiens, UniProt P08908).
T4 sequence (P08908 whole entry): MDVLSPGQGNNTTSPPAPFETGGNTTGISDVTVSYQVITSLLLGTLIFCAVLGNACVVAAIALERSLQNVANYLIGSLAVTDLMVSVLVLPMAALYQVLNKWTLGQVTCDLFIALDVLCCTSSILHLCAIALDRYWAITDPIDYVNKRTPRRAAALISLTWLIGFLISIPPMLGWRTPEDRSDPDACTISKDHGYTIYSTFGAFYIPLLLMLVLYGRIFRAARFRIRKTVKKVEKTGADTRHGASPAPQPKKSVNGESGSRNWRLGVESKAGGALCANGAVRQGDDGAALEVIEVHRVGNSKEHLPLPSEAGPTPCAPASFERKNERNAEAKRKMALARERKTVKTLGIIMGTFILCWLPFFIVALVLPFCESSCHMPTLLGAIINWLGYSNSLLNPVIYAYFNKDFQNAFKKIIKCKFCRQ
The test can be described thus: biochemical.
Description: Displacement of [3H]8-OH-DPAT from human 5HT1A receptor expressed in CHO cells

For test [8], the target named is T5, 5-hydroxytryptamine receptor 2C (Homo sapiens, UniProt P28335).
T5 sequence (P28335 whole entry): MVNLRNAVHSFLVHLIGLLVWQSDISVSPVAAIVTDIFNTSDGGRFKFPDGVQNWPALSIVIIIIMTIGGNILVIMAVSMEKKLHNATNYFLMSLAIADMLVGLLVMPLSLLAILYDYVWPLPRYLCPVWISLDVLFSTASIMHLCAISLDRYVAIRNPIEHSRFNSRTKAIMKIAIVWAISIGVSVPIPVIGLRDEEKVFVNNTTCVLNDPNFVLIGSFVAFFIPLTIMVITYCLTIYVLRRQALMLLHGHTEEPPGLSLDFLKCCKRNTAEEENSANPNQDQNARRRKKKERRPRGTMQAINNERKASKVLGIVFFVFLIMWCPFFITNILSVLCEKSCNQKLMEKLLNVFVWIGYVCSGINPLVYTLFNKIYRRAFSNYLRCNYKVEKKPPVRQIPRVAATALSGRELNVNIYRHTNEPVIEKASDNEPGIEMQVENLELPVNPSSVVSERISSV
The test can be described thus: biochemical.
Description: (§2) Displacement of [3H]mesulergine from 5HT2C receptor expressed in CHO cells

Test [9] deals with T2, 5-hydroxytryptamine receptor 6. As to the kind of experiment: biochemical.
Description: as §1
The target of test [10] is T6, Adrenergic receptor alpha-2 (Rattus norvegicus, UniProt P22086+P19328+P22909).
T6 sequence (P22086 whole entry): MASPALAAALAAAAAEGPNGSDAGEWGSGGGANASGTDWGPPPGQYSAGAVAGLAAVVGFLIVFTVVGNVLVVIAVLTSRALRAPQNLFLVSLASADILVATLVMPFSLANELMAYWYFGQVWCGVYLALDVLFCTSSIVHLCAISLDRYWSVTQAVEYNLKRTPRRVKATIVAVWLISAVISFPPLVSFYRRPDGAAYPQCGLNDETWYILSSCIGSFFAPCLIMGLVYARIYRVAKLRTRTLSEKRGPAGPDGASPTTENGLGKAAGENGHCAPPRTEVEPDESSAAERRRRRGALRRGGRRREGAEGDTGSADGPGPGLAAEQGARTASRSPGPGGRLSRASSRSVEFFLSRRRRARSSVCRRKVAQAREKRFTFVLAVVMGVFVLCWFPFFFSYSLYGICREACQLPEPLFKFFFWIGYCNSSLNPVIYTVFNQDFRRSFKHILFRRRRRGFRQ
T6 sequence (P19328 whole entry): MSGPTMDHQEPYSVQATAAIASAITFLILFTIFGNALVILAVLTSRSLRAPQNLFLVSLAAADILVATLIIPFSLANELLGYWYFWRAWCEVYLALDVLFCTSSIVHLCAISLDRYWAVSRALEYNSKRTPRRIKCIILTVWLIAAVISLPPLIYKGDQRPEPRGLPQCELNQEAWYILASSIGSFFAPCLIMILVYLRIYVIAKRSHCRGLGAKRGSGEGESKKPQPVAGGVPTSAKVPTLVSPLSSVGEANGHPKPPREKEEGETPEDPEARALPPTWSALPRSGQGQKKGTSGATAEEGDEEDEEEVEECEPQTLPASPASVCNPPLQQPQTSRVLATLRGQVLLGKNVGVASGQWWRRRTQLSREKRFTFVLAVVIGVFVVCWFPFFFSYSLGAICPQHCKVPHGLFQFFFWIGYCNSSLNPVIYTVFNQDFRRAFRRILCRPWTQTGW
T6 sequence (P22909 whole entry): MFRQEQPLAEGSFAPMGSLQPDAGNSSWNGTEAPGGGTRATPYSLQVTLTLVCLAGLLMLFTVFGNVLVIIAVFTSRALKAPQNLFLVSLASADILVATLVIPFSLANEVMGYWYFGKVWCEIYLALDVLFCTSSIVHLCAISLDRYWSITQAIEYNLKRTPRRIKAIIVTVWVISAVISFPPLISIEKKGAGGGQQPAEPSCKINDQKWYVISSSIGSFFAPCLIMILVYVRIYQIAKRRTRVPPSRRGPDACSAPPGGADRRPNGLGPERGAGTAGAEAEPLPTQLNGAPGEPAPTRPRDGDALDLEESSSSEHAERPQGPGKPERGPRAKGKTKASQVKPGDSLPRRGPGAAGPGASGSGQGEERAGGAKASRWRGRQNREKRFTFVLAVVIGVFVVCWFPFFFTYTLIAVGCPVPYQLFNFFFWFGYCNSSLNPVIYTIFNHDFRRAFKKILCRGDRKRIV
Description: Displacement of [3H]RX 821002 from adrenergic alpha-2 receptor in rat cerebral cortex

For test [11], the target named is T7, 5-hydroxytryptamine receptor 2C (Homo sapiens) (UniProt P28335).
T7 sequence (whole entry): T5 sequence (P28335 whole entry)
The settings on record: CHO.
Description: as §2

Test [12] deals with Histamine H1 receptor (Cavia porcellus) (UniProt P31389). Conditions: Cerebellum.
Histamine H1 receptor (Cavia porcellus), sequence (P31389 whole entry): as the sequence (P31389 whole entry) above
Description: Displacement of [3H]pyrilamine from histaminergic H1 receptor guinea pig cerebellum
The target in test [13] is Serotonin 3 (5-HT3) receptor. Conditions: hek293.
Description: Displacement of [3H]BLR-43694 from human 5HT3 receptor expressed in HEK293 cells

Description for D(3) dopamine receptor: Displacement of [3H]spiperone from human dopamine D3 receptor expressed in CHO cells
Description for D(4) dopamine receptor: Displacement of [3H]spiperone from human dopamine D4.4 receptor expressed in CHO cells

Turning to `C[C@H]1Oc2c(cccc2N2CCN(CCCc3c[nH]c4ccc(F)cc34)CC2)NC1=O`, the “Log Ki” value in [1] is listed as -7.8. The Ki in [2] is 1 nM; in test [3] it was 7.94 nM; at D(3) dopamine receptor, 0.501 nM; in test [5], 20 nM; on D(4) dopamine receptor it was 1.58 nM; in test [6], 0.251 nM. The Ki at Histamine H1 receptor was 126 nM; in test [7] it was 5.01 nM; in test [8], 200 nM. For the same compound, in test [4], the result was inactive.

With `O=C1c2ccccc2C(=O)N1CCCCN1CC=C(c2c[nH]c3ccc(F)cc23)CC1`, the Ki in test [9] was 398 nM; in [2], 1.58 nM; in test [3] it was 100 nM; at D(3) dopamine receptor, 0.794 nM; in test [5], 100 nM; on D(4) dopamine receptor, 79.4 nM. The Ki is 0.794 nM in [6], 31.6 nM at Histamine H1 receptor, 2.51 nM in test [7] and 39.8 nM in [8]. In test [10], the “Log Ki” value was -6.6.

For `Fc1ccc(-c2cncc(CN3CCN(c4cccc5c4OCCO5)CC3)c2)cc1` [ADOPRAZINE], the “Log Ki” value in test [1] was -6.3. This compound gave a Ki in test [2] of 12.6 nM. The outcome in test [4], in [11] and in test [12] was inactive.

For the compound `O=C1Cc2cc(CCN3CCN(c4nsc5ccccc45)CC3)c(Cl)cc2N1` [ZIPRASIDONE], the Ki is 63.1 nM in test [9]; 1.58 nM in test [2]; 5.01 nM in test [3]; 15.8 nM at Histamine H1 receptor; 1.58 nM in [7]. Besides, the entries for the “Log Ki” value in [1] and in test [13] were -8.1 and -6.4, respectively.

As to `OCCOCCN1CCN(C2=Nc3ccccc3Sc3ccccc32)CC1` [QUETIAPINE], the result in test [4] and in test [11] was inactive.

On to `CCN1CCCC1CNC(=O)c1cc(S(=O)(=O)CC)c(N)cc1OC` (configuration not stated) [AMISULPRIDE], for which the result in [4], in test [11] and in test [12] was inactive. Also, in [10], the “Log Ki” value is given as -6.9.

As for `Cc1nc2n(c(=O)c1CCN1CCC(c3noc4cc(F)ccc34)CC1)CCCC2`, the outcome in [4] was inactive.

For the compound `Cc1cc2c(s1)Nc1ccccc1N=C2N1CCN(C)CC1` [OLANZAPINE], the “Log Ki” value in test [13] is -6.7.
